Species on record: Rattus norvegicus
Experiment: DrugMatrix - Regimen: Daily Repeat
Assay type: toxicity, organism-based, Sprague-Dawley
Set-up: regimen Daily Repeat, gender Male, age 6-8 weeks
Details: in vivo, po, 0 mg/kg, route oral GAVAGE, dose level Control, vehicle 100 % WATER; for ABSOLUTE BASOPHIL / ABSOLUTE EOSINOPHIL / ABSOLUTE LYMPHOCYTE / ABSOLUTE MONOCYTE / ABSOLUTE SEGMENTED NEUTROPHIL / BASOPHIL / EOSINOPHIL / ERYTHROCYTE COUNT / HEMATOCRIT / HEMOGLOBIN / LEUKOCYTE COUNT / LYMPHOCYTE / MEAN CORPUSCULAR HEMOGLOBIN / MEAN CORPUSCULAR HEMOGLOBIN CONCENTRATION / MEAN CORPUSCULAR VOLUME / MONOCYTE / NEUTROPHIL / NUCLEATED RED BLOOD CELLS / PLATELET COUNT: tissue Blood
[1] = 72 h, tissue Plasma, time 3 day
[2] = 120 h, tissue Plasma, time 5 day

## ClC(Cl)Cl [CHLOROFORM]
72 h, time 3 day
  ABSOLUTE BASOPHIL: 0 CELLS/uL
  ABSOLUTE EOSINOPHIL: 86.33 CELLS/uL
  ABSOLUTE LYMPHOCYTE: 12090.17 CELLS/uL
  ABSOLUTE MONOCYTE: 166.67 CELLS/uL
  ABSOLUTE SEGMENTED NEUTROPHIL: 1090.17 CELLS/uL
  BASOPHIL: 0%
  EOSINOPHIL: 0.67%
  ERYTHROCYTE COUNT: 5.57 x10E6/uL
  HEMATOCRIT: 35.33%
  HEMOGLOBIN: 13.83 G/DL
  LEUKOCYTE COUNT: 13.43 x10E3/uL
  LYMPHOCYTE: 89.83%
  MEAN CORPUSCULAR HEMOGLOBIN: 24.88 pg
  MEAN CORPUSCULAR HEMOGLOBIN CONCENTRATION: 39.15 G/DL
  MEAN CORPUSCULAR VOLUME: 63.52 fL
  MONOCYTE: 1.17%
  NEUTROPHIL: 8.33%
  NUCLEATED RED BLOOD CELLS: 0 /100WBC
  PLATELET COUNT: 1181.33 x10E3/uL
[1]
  ALANINE AMINOTRANSFERASE: 48.33 u/L
  ALBUMIN: 4.1 G/DL
  ALKALINE PHOSPHATASE: 395 u/L
  ASPARTATE AMINOTRANSFERASE: 81.83 u/L
  BLOOD UREA NITROGEN: 15.83 mg/dL
  CARBON DIOXIDE: 24.17 mmol/L
  CHLORIDE: 103.83 MEQ/L
  CHOLESTEROL: 63.67 mg/dL
  CREATINE PHOSPHOKINASE: 372.83 u/L
  CREATININE: 0.18 mg/dL
  GLUCOSE: 173.83 mg/dL
  LACTATE DEHYDROGENASE: 188.33 u/L
  LIPASE: 9.5 u/L
  PHOSPHORUS: 11.95 mg/dL
  POTASSIUM: 5.99 MEQ/L
  SODIUM: 144.43 MEQ/L
  TOTAL BILIRUBIN: 0.15 mg/dL
  TOTAL PROTEIN: 5.95 G/DL
  URIC ACID: 1.82 mg/dL
120 h, time 5 day
  ABSOLUTE BASOPHIL: 0 CELLS/uL
  ABSOLUTE EOSINOPHIL: 26.67 CELLS/uL
  ABSOLUTE LYMPHOCYTE: 7583.83 CELLS/uL
  ABSOLUTE MONOCYTE: 131.33 CELLS/uL
  ABSOLUTE SEGMENTED NEUTROPHIL: 674.83 CELLS/uL
  BASOPHIL: 0%
  EOSINOPHIL: 0.33%
  ERYTHROCYTE COUNT: 5.78 x10E6/uL
  HEMATOCRIT: 36.48%
  HEMOGLOBIN: 14.03 G/DL
  LEUKOCYTE COUNT: 8.42 x10E3/uL
  LYMPHOCYTE: 89.83%
  MEAN CORPUSCULAR HEMOGLOBIN: 24.3 pg
  MEAN CORPUSCULAR HEMOGLOBIN CONCENTRATION: 38.52 G/DL
  MEAN CORPUSCULAR VOLUME: 63.15 fL
  MONOCYTE: 1.67%
  NEUTROPHIL: 8.17%
  NUCLEATED RED BLOOD CELLS: 0 /100WBC
  PLATELET COUNT: 1186.67 x10E3/uL
[2]
  ALANINE AMINOTRANSFERASE: 50.17 u/L
  ALBUMIN: 4.07 G/DL
  ALKALINE PHOSPHATASE: 367.5 u/L
  ASPARTATE AMINOTRANSFERASE: 81.67 u/L
  BLOOD UREA NITROGEN: 16.17 mg/dL
  CARBON DIOXIDE: 32.33 mmol/L
  CHLORIDE: 101.5 MEQ/L
  CHOLESTEROL: 65.33 mg/dL
  CREATINE PHOSPHOKINASE: 255.33 u/L
  CREATININE: 0.17 mg/dL
  GLUCOSE: 139.33 mg/dL
  LACTATE DEHYDROGENASE: 95 u/L
  LIPASE: 10.5 u/L
  PHOSPHORUS: 10.38 mg/dL
  POTASSIUM: 6.11 MEQ/L
  SODIUM: 145.55 MEQ/L

— ChEMBL document CHEMBL3885881, “DrugMatrix”
